In ChEMBL document CHEMBL4052584, “Toward Understanding the Structural Basis of Partial Agonism at the Dopamine D3 Receptor” (J Med Chem, 2017):
Activity calls are given as the source filed them. No cut-off for these calls is given here.

Legend:
D(3) dopamine receptor [1] = molecular target: T1, D(3) dopamine receptor (Homo sapiens, UniProt P35462); experiment: Displacement of [3H]-N-methylspiperone from human dopamine D3 receptor expressed in HEK293 cells after 1 hr by MicroBeta microplate counting method; type: cell-based
T1 sequence (P35462 whole entry): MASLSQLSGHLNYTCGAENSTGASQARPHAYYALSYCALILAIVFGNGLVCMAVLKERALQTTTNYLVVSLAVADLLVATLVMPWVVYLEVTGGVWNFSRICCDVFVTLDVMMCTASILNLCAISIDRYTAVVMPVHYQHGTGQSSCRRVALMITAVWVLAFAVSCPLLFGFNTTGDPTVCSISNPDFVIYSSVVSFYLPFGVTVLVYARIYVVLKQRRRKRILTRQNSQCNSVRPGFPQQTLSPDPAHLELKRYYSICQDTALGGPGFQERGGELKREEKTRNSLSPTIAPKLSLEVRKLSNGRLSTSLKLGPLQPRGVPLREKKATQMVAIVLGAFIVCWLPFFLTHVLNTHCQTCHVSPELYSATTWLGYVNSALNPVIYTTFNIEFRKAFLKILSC

D(2) dopamine receptor = D(2) dopamine receptor (Homo sapiens, UniProt P14416); experiment: Displacement of [3H]-N-methylspiperone from human dopamine D2 receptor expressed in HEK293 cells after 1 hr by MicroBeta microplate counting method; type: cell-based
D(2) dopamine receptor, sequence (P14416 whole entry): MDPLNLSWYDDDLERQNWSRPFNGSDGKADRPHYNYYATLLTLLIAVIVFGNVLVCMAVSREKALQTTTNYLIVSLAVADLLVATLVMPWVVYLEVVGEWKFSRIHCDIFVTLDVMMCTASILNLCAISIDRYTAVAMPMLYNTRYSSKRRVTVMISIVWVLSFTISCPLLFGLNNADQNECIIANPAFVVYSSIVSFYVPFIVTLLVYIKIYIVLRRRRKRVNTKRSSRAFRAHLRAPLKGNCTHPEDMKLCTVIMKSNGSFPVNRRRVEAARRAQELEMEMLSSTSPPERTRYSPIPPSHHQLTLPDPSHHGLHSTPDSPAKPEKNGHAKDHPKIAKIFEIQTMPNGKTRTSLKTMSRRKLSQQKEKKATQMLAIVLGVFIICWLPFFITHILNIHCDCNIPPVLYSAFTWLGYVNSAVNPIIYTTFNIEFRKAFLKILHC

Homo sapiens = species: Homo sapiens; experiment: Selectivity ratio of Ki for human dopamine D2 receptor to Ki for human dopamine D3 receptor
D(3) dopamine receptor [2] = molecular target: T1, D(3) dopamine receptor; experiment: Partial agonist activity at dopamine D3 receptor (unknown origin) expressed in HEK293 cells at 10 pM to 100 uM after 30 mins by beta-arrestin recruitment assay relative to dopamine; type: cell-based
D(3) dopamine receptor [3] = molecular target: T1, D(3) dopamine receptor; experiment: Partial agonist activity at dopamine D3 receptor (unknown origin) expressed in HEK293 cells at 10 pM to 100 uM after 2 mins by BRET-based Go activation assay relative to dopamine; type: cell-based; conditions: for Emax: 10 pM

Compound	Ki (D(3) dopamine receptor [1])	Ki (D(2) dopamine receptor)	Ratio Ki (Homo sapiens)	Activity (D(3) dopamine receptor [2])	Emax (D(3) dopamine receptor [3])	Activity (D(3) dopamine receptor [3]; 10 pM to 100 uM)
C[C@H](O)CN1CCN(c2cccc(Cl)c2Cl)CC1	75.2 nM	317 nM	4	–	–	–
CC[C@@H](O)CN1CCN(c2cccc(Cl)c2Cl)CC1	119 nM	588 nM	5	inactive	11.6%	–
O=C(NCC[C@H](O)CN1CCN(c2cccc(Cl)c2Cl)CC1)c1cc2ccccc2[nH]1	–	–	–	Active	55.7%	–
O=C(NCCC(O)CN1CCN(c2cccc(Cl)c2Cl)CC1)c1cnc2ccccc2c1 (racemic)	4.26 nM	268 nM	63	–	–	–
CC[C@H](O)CN1CCN(c2cccc(Cl)c2Cl)CC1	34.3 nM	93.1 nM	3	Active	58.6%	–
O=C(NCC[C@@H](O)CN1CCN(c2cccc(Cl)c2Cl)CC1)c1cc2ccccc2[nH]1	–	–	–	inactive	14.9%	–
O=C(NCC[C@@H](O)CN1CCN(c2cccc(Cl)c2Cl)CC1)c1cnc2ccccc2c1	4.12 nM	202 nM	49	inactive	19.9%	–
O=C(NCC[C@H](O)CN1CCN(c2cccc(Cl)c2Cl)CC1)c1cnc2ccccc2c1	23.4 nM	316 nM	14	Active	53.9%	–
O=C(NCCCCN1CCN(c2cccc(Cl)c2Cl)CC1)c1cnc2ccccc2c1	0.172 nM	10 nM	58	–	20.9%	–
CCCCN1CCN(c2cccc(Cl)c2Cl)CC1	–	–	2	–	–	inactive
C[C@@H](O)CN1CCN(c2cccc(Cl)c2Cl)CC1	373 nM	1400 nM	4	–	–	–
